For one data set, the system named is A-549. Briefly: Inhibition of cells growth by colorimetric (SRB) assay, A-549. Conditions: for GI50 / CC50: Homo sapiens, A549, 48 h; for A-549 TGI / TGI A-549: SRB assay, 48 hours exposure. In outline:
(§1)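 Human tumour cells seeded at 5×10^3/well in RPMI 1640 10% FBS, attached 18 h, then exposed 48 h to samples at 10 to 10^−8 μg/ml in DMSO/EtOH/PBS (0.5:0.5:99). Growth read by SRB staining after TCA fixation, OD 490 nm, triplicate wells; GI, TGI and LC derived.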
On the technique in general: The SRB assay estimates cell density from bound dye.

The subject of the next data set is HMEC1. The data set can be described thus: Inhibition of cells growth by colorimetric (SRB) assay, HMEC1. Conditions: for GI50: Homo sapiens, HMEC-1, 48 h; for H-MEC-1 TGI / TGI H-MEC-1: SRB assay, 48 hours exposure, in M (unit assumed).
Experiment in data set [1]: as above
Conditions: human, HMEC1 cells, 48 hours exposure.

In the next data set the test system is HT-29. Briefly: Inhibition of cells growth by colorimetric (SRB) assay, HT-29. Conditions: for GI50 / CC50: Homo sapiens, HT-29, 48 h; for HT-29 TGI / TGI HT-29: SRB assay, 48 hours exposure. In outline: as §1
[2] abbreviates: read-out: A-549 GI50, SRB assay, 48 hours exposure.
Setting [3] is: read-out: A-549 LC50, SRB assay, 48 hours exposure.
The mark [4] stands for this setting: read-out: H-MEC-1 GI50, SRB assay, 48 hours exposure.
Where [5] appears, read: read-out: HT-29 GI50, SRB assay, 48 hours exposure.
Setting [6] is: read-out: HT-29 LC50, SRB assay, 48 hours exposure.
[7] abbreviates: read-out: GI50 A-549, SRB assay, 48 hours exposure.
Setting [8] is: read-out: LC50 A-549, SRB assay, 48 hours exposure.
Where [9] appears, read: read-out: GI50 H-MEC-1, SRB assay, 48 hours exposure.
Where [10] appears, read: read-out: GI50 HT-29, SRB assay, 48 hours exposure.
[11] abbreviates: read-out: LC50 HT-29, SRB assay, 48 hours exposure.

Read-outs that look alike come from different tables or passages of the source.

For the molecule `Nc1nccc2c(-c3ccncn3)c3cccnc3n12` [Compound 70], the results for the GI50 with A-549 (setting [2]), with HMEC1 (setting [4]) and in the data set on HT-29 (setting [5]) were 0.182 µM, 0.119 µM and 0.0381 µM, respectively. Further, the CC50 in the data set with A-549 (setting [3]) is 3.35 µM; in the data set on HT-29 (setting [6]) it was 38.1 µM. Besides, the “A-549 TGI” value in the data set with A-549 is given as 5.60E−07. Besides, the “H-MEC-1 TGI” value in the data set on HMEC1 is 3.93E−07. Further, the CC50 at 48 h in data set [1] (H-MEC-1 LC50, SRB assay) was determined as 4 µM. In addition, the “HT-29 TGI” value in the data set with HT-29 worked out at 3.81E−06.

With `Cc1nccc(-c2c3cccnc3n3c(N)nccc23)n1` [Compound 75], the values for the GI50 in the data set with A-549 (setting [2]), with HMEC1 (setting [4]) and in the data set with HT-29 (setting [5]) were 4.2 µM, 1.43 µM and 5.79 µM, respectively. The CC50 was determined as 21.3 µM in the data set on A-549 (setting [3]) and 36.2 µM in the data set on HT-29 (setting [6]). Further, the “A-549 TGI” value in the data set on A-549 turned out to be 9.45E−06. Further, the “H-MEC-1 TGI” value in the data set with HMEC1 came to 8.00E−06. The same molecule displayed a CC50 at 48 h in data set [1] (H-MEC-1 LC50, SRB assay) of 36.2 µM. The “HT-29 TGI” value in the data set on HT-29 came out at 3.62E−05.

As for `CSc1nccc(-c2c3c(Cl)ccnc3n3c(SC)nccc23)n1` [Compound 84], the concentration for 50% growth inhibition (GI50) in the data set with A-549 (setting [7]), in the data set with HMEC1 (setting [9]) and with HT-29 (setting [10]) was 26.7 µM in each case. Moreover, the CC50 in the data set with A-549 (setting [8]) and in the data set with HT-29 (setting [11]) was 26.7 µM in each case. For the same molecule, in the data set on A-549, the “TGI A-549” value is listed as 2.67E−05. Also, the “TGI H-MEC-1” value with HMEC1 is recorded as 2.67E−05. The molecule also had a CC50 at 48 h in data set [1] (LC50 H-MEC-1, SRB assay) of 26.7 µM. Further, the “TGI HT-29” value in the data set with HT-29 is 2.67E−05.

Turning to `COc1ccc(CNc2ccnc3c2c(-c2ccnc(SC)n2)c2ccnc(NCc4ccc(OC)cc4)n23)cc1` [Compound 85], the GI50 amounted to 6.58 µM in the data set with A-549 (setting [7]), 6.19 µM with HMEC1 (setting [9]) and 12.2 µM with HT-29 (setting [10]). Moreover, the CC50 in the data set on A-549 (setting [8]) and in the data set on HT-29 (setting [11]) was 17.7 µM in each case. In the data set with A-549, the “TGI A-549” value turned out to be 1.77E−05. Further, the “TGI H-MEC-1” value in the data set on HMEC1 was 1.77E−05. In data set [1] (LC50 H-MEC-1, SRB assay), this molecule gave a CC50 at 48 h of 17.7 µM. The “TGI HT-29” value in the data set with HT-29 came out at 1.77E−05.

With `CSc1nccc(-c2c3c(N)ccnc3n3c(N)nccc23)n1` [Compound 92], the GI50 was found to be 1.76 µM in the data set on A-549 (setting [7]), 0.782 µM in the data set on HMEC1 (setting [9]) and 2.04 µM with HT-29 (setting [10]). Besides, the CC50 in the data set with A-549 (setting [8]) is 24.4 µM; in the data set with HT-29 (setting [11]), 30.9 µM. In addition, in the data set on A-549, the “TGI A-549” value stood at 6.03E−06. Moreover, the “TGI H-MEC-1” value in the data set on HMEC1 stood at 3.09E−06. The molecule also gave a CC50 at 48 h in data set [1] (LC50 H-MEC-1, SRB assay) of 30.9 µM. The “TGI HT-29” value with HT-29 came out at 3.09E−05.

One may read the GI50 as the concentration giving 50% growth inhibition.

The values above are taken from patent US7772241B2, “Variolin derivatives and their use as antitumor agents” (Pharma Mar S.A., priority 2001, dated 2010).
